Where two headings read alike, the source gives them in different places.
Legend:
HCMV AD169-GFP = test: microbe, parasite or virus in culture; format: cell-based, human cytomegalovirus
Experimental: (i.e., 1 × TCID25/7d). Immediately after virus adsorption, the cells were treated with antiviral compounds or solvent control (DMSO). Infections were performed in biological quadruplicates, or as indicated for individual experiments. The cells were fixed by the addition of 150 µL 10% formalin/well 7 d p.i. (Merlin-GFP 14 d p.i.), and washed with PBS. For GFP or YFP quantitation, the Victor X4 microplate reader (PerkinElmer, Waltham, MA, USA) was primarily used, or as a very sensitive alternative, the ImageXpress® Pico device (Molecular Devices LLC, San Jose, CA, USA). Mean EC50 values of antiviral efficacy were calculated on the basis of three experimental replicates or as indicated (measurement of fluorescence values in quadruplicate), and percentage values were provided relative to the solvent control (DMSO).

VZV Oka-GFP = test: VZV replication assay in HFFs; format: cell-based, varicella zoster virus; conditions: Human alphaherpesvirus 3, read-out: EC50 VZV
Experimental: (§1) Primary human foreskin fibroblasts (HFFs; obtained from clinical samples at Children’s Hospital in Erlangen, Germany), guinea pig embryonic fibroblasts (GPEFs; generously provided by Mark R. Schleiss from the University of Minnesota in Minneapolis, MN, USA), and rat embryonic fibroblasts were cultivated in Eagle’s Minimal Essential Medium (MEM) supplemented with 1 × GlutaMAX™ (both from Thermo Fisher Scientific, Waltham, MA, USA), 10 µg/mL gentamicin, and 10% fetal bovine serum (FBS; Capricorn, Ebsdorfergrund, Germany). Human glioblastoma–astrocytoma cell line (U373) and mouse embryonic fibroblasts (MEFs), both obtained from ATCC (Manassas, VA, USA), and Vero cell sublineage 76 [26], were cultivated in Dulbecco’s modified Eagle’s medium (DMEM) supplemented with 1 × GlutaMAX™, 10 µg/mL gentamicin, and 10% fetal bovine serum. All cultured cells were maintained under the conditions of 37 °C temperature, 5% CO2, and 80% humidity. The regular monitoring for the absence of mycoplasma contamination was conducted using Lonza™ Mycoalert™ (Thermo Fisher Scientific, Waltham, MA, USA). Cultured cell-based viral replication assays were performed by the use of the HCMV strain AD169 (variant U.K.), the recombinant HCMVs AD169-GFP expressing green fluorescent protein [27], TB40 IE2-YFP and TB40-FLuc expressing an IE2-YFP fusion protein or firefly luciferase (FLuc), and Merlin-GFP [31]. […]
(§2) A variety of antiherpesviral and non-herpesviral drug activities were assessed by the cell culture-based viral replication systems, as described elsewhere. […] After incubation at 37 °C for 3 days, iSLK.219 cells were fixed with 10% formalin, washed with PBS, and used for a quantitation of RFP reporter signal by PicoMD counting (ImageXpress® Pico device, Molecular Devices LLC, San Jose, CA, USA). […]

JCPyV strain Mad-4 = test: JCPyV replication assay in COS-7 cells (qPCR); format: cell-based, human polyomavirus; conditions: Polyomavirus sp.; JCPyV strain Mad-4 in COS-7 cells, n = 1
Experimental: as §1, with “humidity.” for “humidity. The regular monitoring for the absence of mycoplasma contamination was conducted using Lonza™ Mycoalert™ (Thermo Fisher Scientific, Waltham, MA, USA). Cultured cell-based viral replication assays were performed by the use of the HCMV strain AD169 (variant U.K.), the recombinant HCMVs AD169-GFP expressing green fluorescent protein [27], TB40 IE2-YFP and TB40-FLuc expressing an IE2-YFP fusion protein or firefly luciferase (FLuc), and Merlin-GFP [31].”
as §2

HCMV AD169 = test: Western blot analysis of HCMV protein expression in infected HFFs; format: cell-based, human cytomegalovirus; conditions: 30 nM, HCMV AD169 MOI 0.1, 5 d and 7 d p.i.
Experimental: (§3) Western blot (Wb) analyses were performed as previously described using total lysates prepared from infected and mock-infected HFFs. For this purpose, HFFs were seeded at 3 × 10^5 cells/6-well and used for infection with HCMV AD169, or other viruses as indicated, then treated with compounds or solvent control. At the given time points of infection, the total lysates were prepared and used for separation on standard SDS-PAGE/Wb procedures. For Wb staining, antibodies specific for CDK8 (A302-501A, Bethyl Laboratories, Montgomery, TX, USA); viral proteins such as mAb-IE1, mAb-UL44, mAb-pp28, and mAb-MCP (kindly provided by S. Jonjic and T. Lenac Rovis, Rijeka, Croatia); as well as mAb-β-actin as a house-keeping protein and loading control (A5441, Sigma Aldrich, St. Louis, MO, USA) were used, followed by incubation and staining with the appropriate HRP-conjugated secondary antibodies.

HCMV AD169-UL50-HA = test: Virus entry analysis, pre-post-incubation versus post-incubation (Western blot); format: cell-based, human cytomegalovirus; conditions: CCT 5 nM and 15 nM, HFFs, MOI 0.01, 7 d p.i.
Experimental: as §3

[1] = Human betaherpesvirus 5, AD169, HFF, read-out: EC50 AD169-GFP
[2] = Human betaherpesvirus 5, AD169, read-out: EC50 HCMV

| Compound | EC50 (HCMV AD169-GFP; [1]) [nM] | EC50 (HCMV AD169-GFP; [2]) [nM] | EC50 (VZV Oka-GFP) [nM] | EC50 (JCPyV strain Mad-4) [nM] | viral late (L) protein level (pp28), Western blot (HCMV AD169) | effect at the stage of virus entry (HCMV AD169-UL50-HA) |
| --- | --- | --- | --- | --- | --- | --- |
| Cc1n[nH]c2ncc(C(=O)N3CCC[C@H]3c3ccc(Cl)cc3)cc12 [MSC-2530818] | 1.21 ± 0.77 | 1.21 ± 0.77 | > 50000 | – | – | – |
| CN(C)C(=O)Cn1cc(-c2ccc(-c3cncc4ccccc34)cc2)cn1 [BI-1347] | 0.93 ± 0.67 | 0.93 ± 0.67 | 26000 ± 10000 | 860 ± 1550 | – | – |
| Cn1ncc2cc(-c3cnc(N)c(Cl)c3N3CCC4(CCNC4=O)CC3)ccc21 [CCT-151921] | 3.9 ± 2 | 3.9 ± 2 | 28000 ± 9000 | 3670 ± 3000 | complete inhibition | does not act at the stage of virus entry |
